Laboratory results published in paper PMC7711741 (Journal of medicinal chemistry, 2015).

How the values were obtained:
human PK = human PK (Homo sapiens, UniProt P03952); assay: Ki determination, chromogenic substrate S-2302; type: biochemical; details: versus mupain-1–16
murine uPA = murine uPA (Mus musculus, UniProt P06869); assay: Ki determination, chromogenic substrate S-2444; type: biochemical; details: for fold increase in Ki for muPA: versus peptide 2
huPA-H99Y = assay: Ki determination, chromogenic substrate S-2444; type: biochemical, human; details: versus peptide 2

Chain of murine uPA (P06869 21-433): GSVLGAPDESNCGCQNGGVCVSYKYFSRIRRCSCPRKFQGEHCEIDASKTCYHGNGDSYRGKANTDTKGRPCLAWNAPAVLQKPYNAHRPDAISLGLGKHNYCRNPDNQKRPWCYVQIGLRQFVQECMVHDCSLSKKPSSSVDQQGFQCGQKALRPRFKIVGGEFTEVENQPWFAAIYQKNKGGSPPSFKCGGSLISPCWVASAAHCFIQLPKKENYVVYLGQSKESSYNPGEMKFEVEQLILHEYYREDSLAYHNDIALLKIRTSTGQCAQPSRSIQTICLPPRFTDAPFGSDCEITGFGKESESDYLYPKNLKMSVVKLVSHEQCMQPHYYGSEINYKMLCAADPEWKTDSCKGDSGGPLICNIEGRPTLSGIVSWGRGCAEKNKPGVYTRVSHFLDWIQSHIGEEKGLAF
Chain of human PK (P03952 20-638): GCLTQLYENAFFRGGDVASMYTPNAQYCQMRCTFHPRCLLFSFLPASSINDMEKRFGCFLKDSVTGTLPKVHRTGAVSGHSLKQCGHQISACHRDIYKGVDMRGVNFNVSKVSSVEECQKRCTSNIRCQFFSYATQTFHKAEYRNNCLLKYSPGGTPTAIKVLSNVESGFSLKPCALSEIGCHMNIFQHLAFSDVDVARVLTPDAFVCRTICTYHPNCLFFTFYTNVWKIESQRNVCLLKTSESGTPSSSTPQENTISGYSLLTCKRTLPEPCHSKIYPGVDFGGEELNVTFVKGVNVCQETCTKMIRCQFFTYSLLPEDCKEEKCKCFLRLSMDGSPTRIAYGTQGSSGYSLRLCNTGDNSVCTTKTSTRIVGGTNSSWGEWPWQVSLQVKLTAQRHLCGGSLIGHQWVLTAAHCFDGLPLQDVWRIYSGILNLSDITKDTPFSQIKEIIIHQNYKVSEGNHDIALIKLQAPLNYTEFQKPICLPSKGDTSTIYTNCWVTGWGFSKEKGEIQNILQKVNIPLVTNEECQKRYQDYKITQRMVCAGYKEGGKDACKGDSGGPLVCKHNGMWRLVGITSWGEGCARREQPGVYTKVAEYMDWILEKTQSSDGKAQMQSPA

Substance	fold lower Ki for inhibition of hPK (human PK)	fold weakened affinity to muPA (murine uPA; versus peptide 1)	fold increase in Ki for muPA (murine uPA)	fold increase in Ki for huPA-H99Y (huPA-H99Y)
CPAYS[L-3-(N-amidino-4-piperidyl)alanine]-ALDC [peptide 1]	10 fold	–	–	–
CPAYS[L-3-(N-amidino-4-piperidyl)alanine]AL[KAc]C [peptide 2]	–	about 10 fold	–	–
CPAKS[L-3-(N-amidino-4-piperidyl)alanine]AL[KAc]C [peptide 4]	–	–	100 fold	100 fold
CPARS[L-3-(N-amidino-4-piperidyl)alanine]AL[KAc]C [peptide 3]	–	–	100 fold	100 fold
